Results published in patent US20070292876A1, “METHODS FOR IDENTIFICATION OF COMPOUNDS THAT MIMIC THE SENESCENCE-INDUCING ACTIVITY OF RETINOIC ACID RECEPTOR LIGANDS” (Ordway Research Institute, Inc., priority 2006, published 2007).
Entries after “also recorded” stand apart in the source; their conditions may differ. Values belong to the compound of their own block, whether it stands above or below them.

Assays:
Format in all cases: cell-based, human
MDA-MB-231 cells = assay: Coculture of GFP-expressing MDA-MB-231 cells with RA-treated MCF-7 cells, MDA-MB-231 cell number by FACS
Description: Each bar represents MDA-MB-231 cell number after five days of culture relative to cell number in the absence of MCF-7 or RA. Mean and standard deviation were calculated from three independent experiments. • (b) MDA-MB-231 cells (GFP-expressing) were plated as 1:1 mixtures with MCF-7 cells that were either untreated or treated for eight days with 100 nM, and grown in the presence of DMSO carrier or 100 nM RA. Each bar represents MDA-MB-231 cell relative to MDA-MB-231 cell number in coculture with untreated MCF-7 without RA. Mean and standard deviation were calculated from three independent experiments.
Since retinoid-treated MCF-7 cells upregulate genes for secreted factors with different activities, a functional test was carried out to determine whether retinoid-treated MCF-7 cells express primarily pro-mitogenic or anti-mitogenic activity. In this assay, MCF-7 cells were mixed (1:1) with MDA-MB-231 breast carcinoma cells (insensitive to retinoids), which were transduced with Green Fluorescent Protein (GFP), providing the ability to distinguish and quantitate these cells by FACS analysis. The co-cultures were treated for five days with 100 nM RA. […] In contrast, retinoid treatment in coculture with MCF-7 decreased the number of MDA-MB-231 cells by about 25% (FIG. 4a). In another type of experiment, shown in FIG. 4b, MCF-7 cells were pre-treated for 8 days with RA, to allow for complete growth arrest and development of the senescent phenotype. The treated MCF-7 cells were collected by trypsinization and cocultured for three days with MDA-MB-231, in the presence or in the absence of RA. Coculture with RA-pretreated MCF-7 cells was sufficient to inhibit MDA-MB-231 cell growth by about 30%, as compared to coculture with untreated MCF-7 cells (FIG. 4B, left bar).

MCF-7 cells [1] = assay: Effect on MCF-7 cell growth (cell number after 7 days exposure); conditions: LGD1550 100 nM, LG100815 10 μM, LGD1268 100 nM, LG101208 10 μM
Description: The bars represent cell number after 7 days of culture with the addition of DMSO (control), 100 nM RA, 100 nM RAR agonist LGD1550, 100 nM RXR agonist LGD1268, 10 μM RAR antagonist LG100815, and 10 μM RXR antagonist LG101208. Experiments were done in triplicate, and the results are expressed relative to the average of the control.
(§1) MCF-7 cells were plated at 5×10^5 per P100, and exposed on the next day to DMSO carrier, RA (100 nM), pan-RAR-specific ligands, LGD1550 (100 nM) and LG100815 (10 μM), pan-RXR specific agonist LGD1268, pan-RXR-specific antagonist LG101208, or drug-free DMSO carrier (control). The latter four compounds were provided by Ligand Pharmaceuticals, Inc. The effects of RAR ligands on the growth of MCF-7 cells were determined, as measured by the cell number after 7 days exposure to the compounds (FIG. 1) and on the fraction of cells expressing the senescence-associated β-galactosidase activity (SA-β-gal), a marker of senescence, after 7-day treatment with the compounds (FIG. 2).

MCF-7 cells [2] = assay: Senescence-associated β-galactosidase (SA-β-gal) positive fraction of MCF-7 cells; conditions: 7-day treatment; same concentrations as for cell growth
Description: The bars represent percentages of SA-P-gal+cells after 8 days of treatment with the indicated compounds (in triplicate). The compounds were used at the same concentrations as in FIG. 1.
as §1

MCF-7 cells [3] = assay: Affymetrix U133 Plus 2.0 microarray gene expression profiling: genes (oncogenes) inhibited by RAR ligands; conditions: 24, 48 or 72 hr treatment
Description: (§2) FIG. 3 depicts microarray analysis of changes in gene expression in MCF-7 cells treated with RAR ligands LGD1550 or LG100815, plotted using GeneSpring software. The X axis represents different time points of treatment with RAR ligands (0 point correspond to cells cultured for 3 days with DMSO carrier). […] The groups of genes shown in panels (a) and (b) represent gene ontology (GO) categories, with the exclusion of genes showing raw signal intensity <10 in MCF-7 cells. The groups of genes shown in panels (c) and (d) represent the oncogenes and tumor suppressors listed in Table 1 and Table 2, respectively.
(§3) For the analysis of gene expression, cells treated with the carrier or with RAR ligands LGD1550 or LG100815 were collected after 24, 48 or 72 hr treatment. Total cellular RNA was isolated using Qiagen's RNeasy kit. For gene expression profiling, RNA samples were provided to the Microarray Core Facility at the Genomics Institute of the NYSDOH Wadsworth Center, which carried out biotinylated target preparation (using 2 μg RNA per assay) and hybridization with Affymetrix U133 Plus 2.0 microarrays. Data analysis was carried out using GeneSpring software (Agilent). Gene function analysis was carried out using Pathway Assist (Ariadne Genomics) and PubMed.
Gene Ontology groupings of genes with related biological functions (as provided in the GeneSpring software package) were surveyed for concerted response to RAR ligands. […] Strong downregulation of such genes has been associated with cell cycle arrest induced by chemotherapeutic drugs (Chang et al., 2002). In contrast, inhibition of these genes by RAR ligands was moderate (on average about 2-fold), with almost no genes showing 5-fold or stronger inhibition. On the other hand, we noticed that many of the genes that show the greatest fold inhibition by RAR ligands are known or putative oncogenes. Genes are defined herein as putative oncogenes or tumor suppressors if such genes have been reported in the literature to play a functional role in tumor cell growth, survival, tumorigenesis or metastasis, as determined by targeted inhibition, gene overexpression or protein addition studies.

MCF-7 cells [4] = assay: Affymetrix U133 Plus 2.0 microarray gene expression profiling: tumor suppressors induced by RAR ligands; conditions: 24, 48 or 72 hr treatment
Description: as §2, §3
As previously described (Dokmanovic et al., 2002), retinoid treatment of MCF-7 cells induces genes that encode growth-inhibitory proteins, both intracellular (EPLIN and UBD) and secreted (IGFBP3 and TGFBI). Through the survey of the present microarray data, additional retinoid-inducible growth-inhibitory genes, induced both by LGD1550 and LG100815, have been identified. These genes, listed in Table 2, provide advantageous reporters for identifying compounds that mimic the senescence-inducing effects of retinoids. The products of these genes include both secreted factors and cell-associated proteins.

SMILES: CC1=C(/C=C/C(C)=C/C=C/C(C)=C/C(=O)O)C(C)(C)CCC1 [RA, all-trans retinoic acid]
- growth of MDA-MB-231 cells (MDA-MB-231 cells; 100 nM RA alone, without MCF-7 cells, five days): no effect
- decrease of the number of MDA-MB-231 cells (MDA-MB-231 cells; 100 nM RA in 1:1 coculture with MCF-7, five days): about 25%
- inhibition of MDA-MB-231 cell growth (MDA-MB-231 cells; coculture for three days with MCF-7 pre-treated 8 days with RA, vs coculture with untreated MCF-7): about 30%
- effect of addition of RA to the coculture on MDA-MB-231 growth inhibition (MDA-MB-231 cells; coculture with RA-pretreated MCF-7, 100 nM RA present, three days): no significant effect

- Max fold induction of NBL1 (MCF-7 cells [4]; probe 37005_at): 4.0 fold
- Max fold induction of GSN (MCF-7 cells [4]; probe 200696_s_at): 1.7 fold
- Max fold induction of BTG1 (MCF-7 cells [4]; probe 200921_s_at): 2.5 fold
- Max fold induction of PRSS11 (MCF-7 cells [4]; probe 201185_at, secreted): 1.9 fold
- Max fold induction of BTG2 (MCF-7 cells [4]; probe 201236_s_at): 8.3 fold
- Max fold induction of TGFBI (MCF-7 cells [4]; probe 201506_at, secreted): 53.0 fold
- Max fold induction of MARCKS (MCF-7 cells [4]; probe 201669_s_at): 9.3 fold
- Max fold induction of PRSS8 (MCF-7 cells [4]; probe 202525_at, secreted): 2.4 fold
- Max fold induction of IRF1 (MCF-7 cells [4]; probe 202531_at): 5.3 fold
- Max fold induction of FBLN5 (MCF-7 cells [4]; probe 203088_at, secreted): 10.1 fold
- Max fold induction of IGFBP6 (MCF-7 cells [4]; probe 203851_at, secreted): 2.6 fold
- Max fold induction of GADD45G (MCF-7 cells [4]; probe 204121_at): 3.8 fold
- Max fold induction of UBD (MCF-7 cells [4]; probe 205890_s_at): 35.9 fold
- Max fold induction of BATF (MCF-7 cells [4]; probe 205965_at): 2.7 fold
- Max fold induction of CEACAM1 (MCF-7 cells [4]; probe 206576_s_at): 16.2 fold
- Max fold induction of PPARG (MCF-7 cells [4]; probe 208510_s_at): 15.9 fold
- Max fold induction of KLF6 (MCF-7 cells [4]; probe 208961_s_at): 2.2 fold
- Max fold induction of DDIT3 (MCF-7 cells [4]; probe 209383_at): 2.5 fold
- Max fold induction of NKX3-1 (MCF-7 cells [4]; probe 209706_at): 7.5 fold
- Max fold induction of IGFBP3 (MCF-7 cells [4]; probe 210095_s_at, secreted): 32.2 fold
- Max fold induction of SULF1 (MCF-7 cells [4]; probe 212354_at, secreted): 2.9 fold
- Max fold induction of PDCD4 (MCF-7 cells [4]; probe 212593_s_at): 1.7 fold
- Max fold induction of EI24 (MCF-7 cells [4]; probe 216396_s_at): 2.2 fold
- Max fold induction of EPLIN (MCF-7 cells [4]; probe 217892_s_at): 18.8 fold
- Max fold induction of PHLDA1 (MCF-7 cells [4]; probe 217996_at): 3.7 fold
- Max fold induction of GDF15 (MCF-7 cells [4]; probe 221577_x_at, secreted): 7.2 fold
- Max fold induction of FOXO3A (MCF-7 cells [4]; probe 224891_at): 2.3 fold
- Max fold induction of HIPK2 (MCF-7 cells [4]; probe 225368_at): 3.7 fold
- Max fold induction of TGFB2 (MCF-7 cells [4]; probe 228121_at, secreted): 2.0 fold
- Max fold induction of CDKN2B (MCF-7 cells [4]; probe 236313_at): 3.2 fold
- Max fold induction of VHL (MCF-7 cells [4]; probe 1559227_s_at): 2.0 fold
SMILES: CC(/C=C/C=C(\C)c1cc(C(C)(C)C)cc(C(C)(C)C)c1)=C\C(=O)O [LGD1550]
- MCF-7 cell growth (cell number) (MCF-7 cells [1]): inhibited the cell growth
- fraction of cells expressing SA-β-gal (senescent phenotype) (MCF-7 cells [2]): induced SA-β-gal to an extent similar to that of RA
- Max fold inhibition of G6PD (MCF-7 cells [3]; probe 202275_at): 2.2 fold
- Max fold inhibition of CCNA2 (MCF-7 cells [3]; probe 203418_at): 3.3 fold
- Max fold inhibition of PTTG1 (MCF-7 cells [3]; probe 203554_x_at): 2.7 fold
- Max fold inhibition of PBX3 (MCF-7 cells [3]; probe 204082_at): 3.4 fold
- Max fold inhibition of FGFR3 (MCF-7 cells [3]; probe 204379_s_at): 5.0 fold
- Max fold inhibition of TFF3 (MCF-7 cells [3]; probe 204623_at, secreted): 4.0 fold
- Max fold inhibition of IRS1 (MCF-7 cells [3]; probe 204686_at): 2.6 fold
- Max fold inhibition of MYB (MCF-7 cells [3]; probe 204798_at): 9.9 fold
- Max fold inhibition of C4.4A (MCF-7 cells [3]; probe 204952_at): 8.1 fold
- Max fold inhibition of ENTPD5 (MCF-7 cells [3]; probe 205757_at): 3.4 fold
- Max fold inhibition of GREB1 (MCF-7 cells [3]; probe 205862_at): 4.8 fold
- Max fold inhibition of HMMR (MCF-7 cells [3]; probe 207165_at): 2.9 fold
- Max fold inhibition of CCND1 (MCF-7 cells [3]; probe 208711_s_at): 2.1 fold
- Max fold inhibition of BMP7 (MCF-7 cells [3]; probe 209591_s_at, secreted): 1.8 fold
- Max fold inhibition of CXCL12 (MCF-7 cells [3]; probe 209687_at, secreted): 5.7 fold
- Max fold inhibition of MSX2 (MCF-7 cells [3]; probe 210319_x_at): 4.0 fold
- Max fold inhibition of RET (MCF-7 cells [3]; probe 211421_s_at): 8.5 fold
- Max fold inhibition of PIK3R1 (MCF-7 cells [3]; probe 212240_s_at): 2.0 fold
- Max fold inhibition of MYBL1 (MCF-7 cells [3]; probe 213906_at): 2.6 fold
- Max fold inhibition of MAFB (MCF-7 cells [3]; probe 218559_s_at): 7.5 fold
- Max fold inhibition of VAV3 (MCF-7 cells [3]; probe 218807_at): 14.5 fold
- Max fold inhibition of PDLIM2 (MCF-7 cells [3]; probe 219165_at): 4.0 fold
- Max fold inhibition of ECT2 (MCF-7 cells [3]; probe 219787_s_at): 2.8 fold
- Max fold inhibition of SPDEF (MCF-7 cells [3]; probe 220192_x_at): 14.2 fold
- Max fold inhibition of AMIGO2 (MCF-7 cells [3]; probe 222108_at): 11.7 fold
- Max fold inhibition of MALAT1 (MCF-7 cells [3]; probe 224559_at): 2.5 fold

SMILES: Cc1cc2c(cc1C1(c3ccc(C(=O)O)cn3)CC1)C(C)(C)CCC2(C)C [LGD1268]
- MCF-7 cell growth (cell number) (MCF-7 cells [1]): did not inhibit cell growth; also recorded: modest but reproducible increase in cell growth
- fraction of cells expressing SA-β-gal (senescent phenotype) (MCF-7 cells [2]): did not induce the senescent phenotype
